Reference: patent US20070082880A1 (priority 2005, published 2007)
pIC50: −log10 of the molar value. Where a name gives a salt, the structure may show the parent alone.

Assays:
[1] = molecular target: T1, human PKCθ full length enzyme (Homo sapiens, UniProt Q04759); assay: PKCθ IMAP Assay; assay type: biochemical; settings: average value when one or more samples were tested; ATP 6 uM, PKCθ 1 nM
T1 construct: human PKCθ full length enzyme (Panvera Catalog No. P2996); purchased Panvera P2996
Summary of the method: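 Full-length human PKCθ (1 nM final) with 6 uM ATP and 100 nM 5FAM-labelled peptide, 5% DMSO, 3.0 mM DTT in reaction buffer. 25 min at room temperature; IMAP bead binding 20 min, fluorescence polarization read. Compounds 2:1 serially diluted; no-ATP and no-enzyme wells as controls.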

T1 sequence (Q04759 whole entry): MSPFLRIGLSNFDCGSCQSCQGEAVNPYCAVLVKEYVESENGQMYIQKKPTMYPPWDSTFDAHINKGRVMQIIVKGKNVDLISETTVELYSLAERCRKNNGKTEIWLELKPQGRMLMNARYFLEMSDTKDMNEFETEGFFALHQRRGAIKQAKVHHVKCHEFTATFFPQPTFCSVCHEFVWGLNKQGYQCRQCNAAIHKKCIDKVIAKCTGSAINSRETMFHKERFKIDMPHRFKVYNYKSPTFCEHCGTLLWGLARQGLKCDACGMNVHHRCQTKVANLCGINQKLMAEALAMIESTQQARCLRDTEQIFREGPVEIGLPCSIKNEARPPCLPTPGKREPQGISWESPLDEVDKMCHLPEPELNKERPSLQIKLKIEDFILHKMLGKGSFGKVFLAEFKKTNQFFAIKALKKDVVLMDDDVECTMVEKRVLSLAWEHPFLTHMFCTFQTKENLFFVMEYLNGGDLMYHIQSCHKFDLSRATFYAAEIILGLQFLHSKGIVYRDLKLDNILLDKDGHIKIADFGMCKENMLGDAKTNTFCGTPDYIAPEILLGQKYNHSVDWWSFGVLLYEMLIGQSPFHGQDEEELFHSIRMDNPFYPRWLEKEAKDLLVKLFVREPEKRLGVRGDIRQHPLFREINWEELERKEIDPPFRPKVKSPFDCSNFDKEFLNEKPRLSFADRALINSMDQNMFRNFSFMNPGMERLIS

For `Cc1c(Nc2c(C#N)cnc3sc(/C=C/CN4CCOCC4)cc23)ccc2[nH]ccc12` (as salt: HCl) [Compound 275, 4-[(4-methyl-1H-indol-5-yl)amino]-2-[(1E)-3-morpholin-4-ylprop-1-en-1-yl]thieno[2,3-b]pyridine-5-carbonitrile], the melting point was 230 °C (dec.).

With `Cc1c(Nc2c(C#N)cnc3sc(C4CCN(Cc5ccccc5)C4)cc23)ccc2[nH]ccc12` (centres unmarked) (as salt: HCl) [Compound 479, 2-(1-benzylpyrrolidin-3-yl)-4-[(4-methyl-1H-indol-5-yl)amino]thieno[2,3-b]pyridine-5-carbonitrile] the melting point was 185 °C (dec.).

With `N#Cc1cnc2sc(I)cc2c1Nc1cccc2cc[nH]c12` [Compound 108, 4-(1H-indol-7-ylamino)-2-iodothieno[2,3-b]pyridine-5-carbonitrile] the melting point was over 245 °C.

With `N#Cc1cnc2sc(-c3ccccc3)cc2c1NCc1ccc2[nH]ccc2c1` [Compound 124, 4-(1H-indol-5-ylmethylamino)-2-phenylthieno[2,3-b]pyridine-5-carbonitrile] the pIC50 [1] was 5.43 and the melting point was 219 to 221 °C.

In the case of `N#Cc1cnc2sc(-c3ccccc3)cc2c1Oc1ccc2[nH]ccc2c1` [Compound 130, 4-(1H-indol-5-yloxy)-2-phenylthieno[2,3-b]pyridine-5-carbonitrile], the pIC50 [1] was 5.03 and the melting point was 219 to 221 °C.

`N#Cc1cnc2sc(-c3ccc(C=O)cc3)cc2c1Nc1cccc2[nH]ccc12` [Compound 136, 2-(4-formylphenyl)-4-(1H-indol-4-ylamino)thieno[2,3-b]pyridine-5-carbonitrile] gave a melting point of over 245 °C.

Molecule `N#Cc1cnc2sc(-c3cccc(C=O)c3)cc2c1Nc1cccc2[nH]ccc12` [Compound 139, 2-(3-formylphenyl)-4-(1H-indol-4-ylamino)thieno[2,3-b]pyridine-5-carbonitrile] has a melting point of over 245 °C.

For `N#Cc1cnc2sc(-c3ccccc3C=O)cc2c1Nc1cccc2[nH]ccc12` [Compound 142, 2-(2-formylphenyl)-4-(1H-indol-4-ylamino)thieno[2,3-b]pyridine-5-carbonitrile], the melting point was 137 to 139 °C.

With `N#Cc1cnc2sc(-c3cccc(C=O)c3)cc2c1Nc1ccc2[nH]ccc2c1` [Compound 144, 2-(3-formylphenyl)-4-(1H-indol-5-ylamino)thieno[2,3-b]pyridine-5-carbonitrile] the melting point was 221 to 223 °C.

In the case of `N#Cc1cnc2sc(-c3ccccc3C=O)cc2c1Nc1ccc2[nH]ccc2c1` [Compound 184, 2-(2-formylphenyl)-4-(1H-indol-5-ylamino)thieno[2,3-b]pyridine-5-carbonitrile], the melting point was 222 to 224 °C.

In the case of `CN1CCN(CCC#Cc2cc3c(Nc4ccc5[nH]ccc5c4)c(C#N)cnc3s2)CC1` [Compound 221, 4-(1H-indol-5-ylamino)-2-[4-(4-methylpiperazin-1-yl)but-1-yn-1-yl]thieno[2,3-b]pyridine-5-carbonitrile], the pIC50 [1] was 6.77 and the melting point was 195 to 197 °C.

`COC(=O)c1cc2c(Nc3ccc4[nH]ccc4c3C)c(C#N)cnc2s1` [Compound 245, methyl 5-cyano-4-[(4-methyl-1H-indol-5-yl)amino]thieno[2,3-b]pyridine-2-carboxylate] showed a pIC50 [1] of 7.17 and a melting point of 255 °C.

Molecule `Cc1c(Nc2c(C#N)cnc3sc(C(=O)O)cc23)ccc2[nH]ccc12` [Compound 247, 5-cyano-4-[(4-methyl-1H-indol-5-yl)amino]thieno[2,3-b]pyridine-2-carboxylic acid] has a pIC50 [1] of 6.66 and a melting point of 287 °C.

In the case of `N#Cc1cnc2sc(C(=O)O)cc2c1Nc1ccc2[nH]ccc2c1` [Compound 248, 5-cyano-4-(1H-indol-5-ylamino)thieno[2,3-b]pyridine-2-carboxylic acid], the pIC50 [1] was 5.69 and the melting point was over 250 °C.

For `Cc1c(Nc2c(C#N)cnc3sc(C(=O)N4CCCC4)cc23)ccc2[nH]ccc12` [Compound 249, 4-[(4-methyl-1H-indol-5-yl)amino]-2-(pyrrolidin-1-ylcarbonyl)thieno[2,3-b]pyridine-5-carbonitrile], the pIC50 [1] was 7.32 and the melting point was 256 °C.

In the case of `N#Cc1cnc2sc(CN3CCCC3)cc2c1Nc1ccc2[nH]ccc2c1` [Compound 267, 4-(1H-indol-5-ylamino)-2-(pyrrolidin-1-ylmethyl)thieno[2,3-b]pyridine-5-carbonitrile], the pIC50 [1] was 5.49 and the melting point was 212 to 215 °C.

With `CCCCc1cc2c(Nc3ccc4[nH]ccc4c3)c(C#N)cnc2s1` [Compound 271, 2-butyl-4-(1H-indol-5-ylamino)thieno[2,3-b]pyridine-5-carbonitrile] the pIC50 [1] was 5.94 and the melting point was 210 °C.

Molecule `CN1CCN(CC/C=C/c2cc3c(Nc4ccc5[nH]ccc5c4)c(C#N)cnc3s2)CC1` [Compound 273, 4-(1H-indol-5-ylamino)-2-[(1E)-4-(4-methylpiperazin-1-yl)but-1-en-1-yl]thieno[2,3-b]pyridine-5-carbonitrile] has a pIC50 [1] of 6.35 and a melting point of 220 °C.

For `CN1CCN(CCCCc2cc3c(Nc4ccc5[nH]ccc5c4)c(C#N)cnc3s2)CC1` [Compound 274, 4-(1H-indol-5-ylamino)-2-[4-(4-methylpiperazin-1-yl)butyl]thieno[2,3-b]pyridine-5-carbonitrile], the pIC50 [1] was 6.01 and the melting point was 120 °C (dec.).

For `CCOC(=O)/C=C/c1cc2c(Nc3ccc4[nH]ccc4c3)c(C#N)cnc2s1` [Compound 280, ethyl (2E)-3-[5-cyano-4-(1H-indol-5-ylamino)thieno[2,3-b]pyridin-2-yl]acrylate], the pIC50 [1] was 6.22 and the melting point was 226 °C.

With `N#Cc1cnc2sc(/C=C/C(=O)O)cc2c1Nc1ccc2[nH]ccc2c1` [Compound 281, (2E)-3-[5-cyano-4-(1H-indol-5-ylamino)thieno[2,3-b]pyridin-2-yl]acrylic acid] the pIC50 [1] was 5.71 and the melting point was 230 °C (dec.).

`Cc1c(Nc2c(C#N)cnc3sc(/C=C/C(=O)O)cc23)ccc2[nH]ccc12` [Compound 283, (2E)-3-{5-cyano-4-[(4-methyl-1H-indol-5-yl)amino]thieno[2,3-b]pyridin-2-yl}acrylic acid] showed a pIC50 [1] of 7.68 and a melting point of over 350 °C.

For `CCOC(=O)CCc1cc2c(Nc3ccc4[nH]ccc4c3)c(C#N)cnc2s1` [Compound 284, ethyl 3-[5-cyano-4-(1H-indol-5-ylamino)thieno[2,3-b]pyridin-2-yl]propanoate], the pIC50 [1] was 6.18 and the melting point was 202 °C.

With `N#Cc1cnc2sc(CCC(=O)O)cc2c1Nc1ccc2[nH]ccc2c1` [Compound 285, 3-[5-cyano-4-(1H-indol-5-ylamino)thieno[2,3-b]pyridin-2-yl]propanoic acid] the pIC50 [1] was 5.30 and the melting point was 255 °C.

With `Cc1c(Nc2c(C#N)cnc3sc(/C=C/C(=O)O)c(C)c23)ccc2[nH]ccc12` [Compound 287, (2E)-3-{5-Cyano-3-methyl-4-[(4-methyl-1H-indol-5-yl)amino]thieno[2,3-b]pyridin-2-yl}acrylic acid] the pIC50 [1] was 7.33 and the melting point was 329 °C.

For `Cc1c(Nc2c(C#N)cnc3sc(CCC(=O)N4CCCC4)cc23)ccc2[nH]ccc12` [Compound 315, 4-[(4-methyl-1H-indol-5-yl)amino]-2-(3-oxo-3-pyrrolidin-1-ylpropyl)thieno[2,3-b]pyridine-5-carbonitrile], the pIC50 [1] was 6.60 and the melting point was 175 °C.
